Results published in patent US20080090805A1, “CB-1 MODULATING COMPOUNDS AND THEIR USE” (ACADIA PHARMACEUTICALS INC., priority 2005, published 2008).

What was measured:
NSA mice = assay: Hypothermia study (block of CP 55,940-induced hypothermia); format: in vivo; parameters: Hypothermia 3 mg/kg / Hypothermia 0.3 mg/kg: unit not given here
Experimental: . […] Core body temperatures were then obtained at various time points following CP 55,940 administration. Core body temperature (to the nearest 0.1° C.) was obtained by rectal probe.

native CB1 receptors = native CB1 receptors (Rattus norvegicus, UniProt P20272); assay: CB1 receptor rat binding assay ([3H]SR141716A, rat brain membranes); conditions: rat brain membranes, [3H]SR141716A; for Ki: read-out: Binding rat pKi (converted)
Sequence of native CB1 receptors (P20272 whole entry): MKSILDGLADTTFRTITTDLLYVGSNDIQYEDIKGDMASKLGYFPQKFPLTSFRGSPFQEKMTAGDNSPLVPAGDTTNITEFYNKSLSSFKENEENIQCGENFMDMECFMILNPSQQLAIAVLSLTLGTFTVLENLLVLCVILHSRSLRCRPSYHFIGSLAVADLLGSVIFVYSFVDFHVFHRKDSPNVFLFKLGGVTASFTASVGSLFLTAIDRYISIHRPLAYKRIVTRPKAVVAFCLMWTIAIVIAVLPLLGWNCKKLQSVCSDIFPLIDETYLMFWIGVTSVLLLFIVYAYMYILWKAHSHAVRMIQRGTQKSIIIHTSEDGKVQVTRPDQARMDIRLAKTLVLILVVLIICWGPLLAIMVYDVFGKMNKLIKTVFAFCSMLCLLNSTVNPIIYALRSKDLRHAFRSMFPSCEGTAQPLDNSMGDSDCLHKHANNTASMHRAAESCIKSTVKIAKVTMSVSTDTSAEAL

| SMILES | Ki (native CB1 receptors) [nM] | Binding rat Inh % (native CB1 receptors) [%] | also measured |
| --- | --- | --- | --- |
| O=C(NCc1cccs1)c1ccc2c(c1)N=C(c1ccc(Cl)cc1)c1ccccc1S2 [drawing 1628] | – | – | Hypothermia 3 mg/kg (NSA mice): 92; Hypothermia ID50 (NSA mice; block of CP 55,940-induced hypothermia): 0.9 mg/kg |
| O=C(NCc1ccc(F)cc1)c1ccc2c(c1)N=C(c1ccc(Cl)cc1)c1ccccc1[S+]2[O-] (stereo not shown) [drawing 1645] | – | – | Hypothermia 3 mg/kg (NSA mice): 22 |
| O=C(NN1CCCCCC1)c1ccc2c(c1)N=C(c1ccc(Cl)cc1F)c1ccccc1S2 [drawing 1563] | – | – | Hypothermia 0.3 mg/kg (NSA mice): 2; Hypothermia 3 mg/kg (NSA mice): 54 |
| O=C(NCc1cccc(Cl)c1)c1ccc2c(c1)N=C(c1ccc(Cl)cc1)c1cc(F)ccc1S2 [drawing 1583] | – | – | Hypothermia 0.3 mg/kg (NSA mice): 14; Hypothermia 3 mg/kg (NSA mice): −4 |
| O=C(NCc1cccc(Cl)c1)c1ccc2c(c1)N=C(c1ccc(F)cc1)c1ccccc1S2(=O)=O [drawing 1571] | – | – | Hypothermia 3 mg/kg (NSA mice): 45 |
| O=C(NCc1cccc(Cl)c1)c1ccc2c(c1)N=C(N1CCC(F)(F)CC1)c1ccccc1S2 [drawing 1652] | – | – | Hypothermia 0.3 mg/kg (NSA mice): −31; Hypothermia 3 mg/kg (NSA mice): 19 |
| O=C(NN1CCCCC1)c1ccc2c(c1)N=C(C1CCCCC1)c1ccccc1S2 [drawing 1592] | – | – | Hypothermia 3 mg/kg (NSA mice): 69 |
| O=C(NC1CCCCC1)c1ccc2c(c1)N=C(c1cccc(F)c1)c1ccccc1S2 [drawing 1632] | – | – | Hypothermia 3 mg/kg (NSA mice): 44 |
| O=C(NCCc1cccnc1)c1ccc2c(c1)N=C(c1cccc(Cl)c1)c1ccccc1S2 [drawing 1643] | – | – | Hypothermia 3 mg/kg (NSA mice): 41 |
| O=C(NN1CCCCC1)c1ccc2c(c1)N=C(c1ccc(Cl)cc1)c1ccccc1S2 [drawing 1575] | – | – | Hypothermia 0.3 mg/kg (NSA mice): −18; Hypothermia 3 mg/kg (NSA mice): 69 |
| C[C@@H]1CCC[C@H](C)N1NC(=O)c1ccc2c(c1)N=C(c1cccc(F)c1)c1ccccc1S2 [drawing 1635] | – | – | Hypothermia 3 mg/kg (NSA mice): 17 |
| O=C(NCc1ccco1)c1ccc2c(c1)N=C(c1ccc(Cl)c(Cl)c1)c1ccccc1S2 [drawing 1567] | – | – | Hypothermia 3 mg/kg (NSA mice): 54 |
| O=C(NCc1ccco1)c1ccc2c(c1)N=C(c1ccc(Cl)s1)c1ccccc1S2 [drawing 1557] | – | – | Hypothermia 3 mg/kg (NSA mice): 66 |
| O=C(NCc1cccnc1)c1ccc2c(c1)N=C(c1cccc(F)c1)c1ccccc1S2 [drawing 1621] | – | – | Hypothermia 3 mg/kg (NSA mice): 17 |
| CC(C)CNC(=O)c1ccc2c(c1)N=C(c1ccc(Cl)s1)c1ccccc1S2 [drawing 1578] | – | – | Hypothermia 0.3 mg/kg (NSA mice): 23; Hypothermia 3 mg/kg (NSA mice): 73 |
| CCN(CCNC(=O)c1ccc2c(c1)N=C(N1CCCCC1)c1ccccc1S2)c1ccccc1 [drawing 1439] | 6.31 | – | – |
| CCCCNC(=O)c1ccc2c(c1)N=C(c1ccc(Cl)s1)c1cc(Cl)ccc1S2 [drawing 1426] | 6.31 | 85 | – |
| CCCCNC(=O)c1ccc2c(c1)N=C(c1ccccn1)c1ccccc1S2 [drawing 1527] | 79.4 | 108 | – |
| CCCCNC(=O)c1ccc2c(c1)N=C(c1ccc(Cl)cc1)c1cc(Cl)ccc1S2 [drawing 1464] | 7.94 | 78 | – |
| O=C(NCCCC(F)(F)F)c1ccc2c(c1)N=C(c1ccccn1)c1ccccc1S2 [drawing 1473] | 7.94 | 92 | – |

| SMILES | Ki (native CB1 receptors) [nM] | Binding rat Inh % (native CB1 receptors) [%] | also measured |
| --- | --- | --- | --- |
| COc1ccc(C2=Nc3cc(C(=O)NCc4ccncc4)ccc3Sc3ccccc32)cc1 [drawing 1412] | 39.8 | 67 | – |
| O=C(NCCCc1ccccc1)c1ccc2c(c1)N=C(c1cccc(Cl)c1)c1ccccc1S2 [drawing 1327] | 3.16 | – | – |
| O=C(NCCc1cccc(Cl)c1)c1ccc2c(c1)N=C(c1cccc(Cl)c1)c1ccccc1S2 [drawing 1331] | 25.1 | – | – |
| O=C(NCc1ccccc1Cl)c1ccc2c(c1)N=C(N1CCCCC1)c1ccccc1S2 [drawing 1366] | 31.6 | – | – |
| O=C(NCCc1cccc(Cl)c1)c1ccc2c(c1)N=C(c1ccccc1F)c1ccccc1S2 [drawing 1459] | 50.1 | – | – |
| Cc1cccc(C2=Nc3cc(C(=O)NCc4ccc(C)o4)ccc3Sc3ccccc32)n1 [drawing 1353] | 3.98 | 108 | – |
| CC(C)CCNC(=O)c1ccc2c(c1)N=C(c1ccccc1F)c1ccccc1S2 [drawing 1509] | 10 | 85 | – |
| O=C(NCc1cccnc1)c1ccc2c(c1)N=C(c1ccc(F)cc1)c1ccccc1S2 [drawing 1541] | 12.6 | 97 | – |
| CN1c2ccc(C(=O)NCc3ccc(F)cc3)cc2N=C(c2ccc(F)cc2)c2ccccc21 [drawing 1496] | 63.1 | 83 | – |
| O=C(NCc1ccccc1Br)c1ccc2c(c1)N=C(c1ccccc1F)c1ccccc1S2 [drawing 1355] | 31.6 | – | – |
| O=C(NN1CCCCCC1)c1ccc2c(c1)N=C(c1ccccc1F)c1ccccc1S2 [drawing 1342] | 25.1 | 101 | – |
| CCCCNS(=O)(=O)c1ccc2c(c1)N=C(c1ccc(Cl)cc1)c1ccccc1S2 [drawing 1405] | 39.8 | 92 | – |
| O=C(NCc1ccncc1)c1ccc2c(c1)N=C(c1ccc(F)cc1)c1ccccc1S2 [drawing 1443] | 50.1 | 68 | – |
| CC(C)NC(=O)c1ccc2c(c1)N=C(c1cccc(F)c1)c1ccccc1S2 [drawing 1528] | 79.4 | 77 | – |
| O=C(NCc1ccncc1)c1ccc2c(c1)N=C(c1ccc(Br)cc1)c1ccccc1S2 [drawing 1453] | 50.1 | 80 | – |
| CC(C)CNC(=O)c1ccc2c(c1)N=C(c1cccc(F)c1)c1ccccc1S2 [drawing 1490] | 10 | 87 | – |
| O=C(NN1CCCCC1)c1ccc2c(c1)N=C(c1ccc(F)c(Cl)c1)c1ccccc1S2 [drawing 1321] | 3.16 | 100 | – |
| CCCCNC(=O)c1ccc2c(c1)N=C(c1ccc(Cl)cc1Cl)c1ccccc1S2 [drawing 1406] | 39.8 | 98 | – |
| O=C(NC1CCCCC1)c1ccc2c(c1)N=C(c1ccccn1)c1ccccc1S2 [drawing 1537] | 100 | 77 | – |
| Cc1csc(CNC(=O)c2ccc3c(c2)N=C(c2sccc2C)c2ccccc2S3)c1 [drawing 1255] | 1 | 93 | – |

| SMILES | Ki (native CB1 receptors) [nM] | Binding rat Inh % (native CB1 receptors) [%] | also measured |
| --- | --- | --- | --- |
| CC(CNC(=O)c1ccc2c(c1)N=C(c1ccccc1)c1ccccc1S2)c1ccccc1 (stereo not shown) [drawing 1197] | 12.6 | – | – |
| Cc1ccc(CNC(=O)c2ccc3c(c2)N=C(c2cccc(Cl)c2)c2ccccc2S3)o1 [drawing 1231] | 0.631 | 85 | – |
| COCCNC(=O)c1ccc2c(c1)N=C(c1cccc(Cl)c1)c1ccccc1S2 [drawing 1461] | 50.1 | 80 | – |
| O=C(NCc1cccc(Cl)c1)c1ccc2c(c1)N=C(N1CCCCC1)c1ccccc1[S+]2[O-] (stereo not shown) [drawing 1315] | 25.1 | – | – |
| COc1cccc(C2=Nc3cc(C(=O)NCc4ccc(C)o4)ccc3Sc3ccccc32)n1 [drawing 1458] | 7.94 | 90 | – |
| CCCCNC(=O)c1ccc2c(c1)N=C(c1cccc(Cl)c1)c1cc(Cl)ccc1S2 [drawing 1235] | 15.8 | 89 | – |
| O=C(NCCc1ccncc1)c1ccc2c(c1)N=C(c1cccc(F)c1)c1ccccc1S2 [drawing 1389] | 31.6 | 88 | – |
| Cc1ccsc1C1=Nc2cc(C(=O)NC3CCCC3)ccc2Sc2ccccc21 [drawing 1382] | 31.6 | 102 | – |
| O=C(NCCc1ccccn1)c1ccc2c(c1)N=C(c1ccc(Cl)c(Cl)c1)c1ccccc1S2 [drawing 1452] | 50.1 | 114 | – |
| CCCCNC(=O)c1ccc2c(c1)N=C(N1CCCCC1)c1ccccc1S2 [drawing 1325] | 25.1 | – | – |
| O=C(NCc1ccc(F)cc1)c1ccc2c(c1)N=C(c1ccc(Cl)cc1)c1ccccc1[S+]2[O-] (stereo not shown) [drawing 1301] | 20 | – | – |
| O=C(NC1CCCC1)c1ccc2c(c1)N=C(c1cccc(Cl)c1)c1ccccc1S2 [drawing 1547] | 12.6 | 84 | – |
| O=C(NCc1ccccc1Cl)c1ccc2c(c1)N=C(c1ccccc1)c1ccccc1S2 [drawing 1324] | 25.1 | – | – |
| CCCCNC(=O)c1ccc2c(c1)N=C(c1ccccc1)c1ccccc1S2 [drawing 1300] | 20 | – | – |
| Cc1csc(CNC(=O)c2ccc3c(c2)N=C(c2ccc(Cl)s2)c2ccccc2S3)c1 [drawing 1232] | 0.794 | 90 | – |
| CCCC1=Nc2cc(C(=O)NCCc3ccc(OC)cc3OC)ccc2Sc2ccccc21 [drawing 1536] | 79.4 | – | – |
| O=C(NCCc1ccc(Cl)cc1)c1ccc2c(c1)N=C(c1cccc(Cl)c1)c1ccccc1S2 [drawing 1281] | 2 | – | – |
| CC(C)NC(=O)c1ccc2c(c1)N=C(c1ccc(Cl)cc1F)c1ccccc1S2 [drawing 1363] | 31.6 | 72 | – |
| CC(CNC(=O)c1ccc2c(c1)N=C(c1cccc(Cl)c1)c1ccccc1S2)c1ccccc1 (stereo not shown) [drawing 1304] | 2.51 | – | – |
